Data taken from article PMC8406298, “Discovery of Fungus-Specific Targets and Inhibitors Using Chemical Phenotyping of Pathogenic Spore Germination” (mBio, 2021).

How the values were obtained:
[1] = tested on: Cryptococcus yeast (CHY3833 and CHY3836); test: Yeast replication secondary screen (OD600); format: cell-based, Cryptococcus neoformans serotype D (deneoformans); settings: 10 μM, 12 h at 30°C
Method: (ii) Yeast replication. CHY3833 and CHY3836 were each grown in YPD liquid overnight at 30°C to saturation and then resuspended in 0.5× YPD at an OD600 of 0.005. Strains were aliquoted into 384-well plates with inhibitors and grown for 12 h at 30°C at […] before OD600 readings were taken. Compounds that caused a >10% decrease in growth were considered yeast growth inhibitors.

[2] = tested on: normal human dermal fibroblasts (NHDF) cells; test: Fibroblast cytotoxicity (CellTiter-Glo); format: cell-based; settings: 10 µM
Method: PrimaPure normal human dermal fibroblasts (NHDF) cells (Genlatis PH10605A) were cultured and passaged in fibroblast growth medium (Genlatis PM116500) according to the manufacturer’s protocol. NHDF cells (1 × 10^3 per well) were plated in a 384-well plate in cell culture medium. The cells were incubated with each compound of interest at 10 μM concentration for 72 h at 37°C and 5% CO2. Following treatment, CellTiter-Glo (Promega) reagent was used to assay ATP-dependent luminescence and thus provide a measure of cell viability. […] For cytotoxicity dose-response curves (Fig. 4C and Fig. 5C), compounds were titrated from 80 μM to 0.5 μM in duplicates.

SMILES | Yeast Inhibition: % Inhibition [1] [%] | Cytotoxicity: Relative Cell Viability (% of Negative Control) [2]
O=C(Nc1cccc(C(F)(F)F)c1)C1=Cc2ccccc2OC1 [compound 1475928] | 77.9 | 58.1 % of Negative Control
O=C(NCCc1ccccc1)c1n[nH]c2ccccc12 [compound 1505880] | 77.5 | 87.7 % of Negative Control
Cc1c(-n2c(-c3ccccc3)csc2=NC(=O)c2ccccc2)c(=O)n(-c2ccccc2)n1C [compound 1528700] | -8.8 | 93.1 % of Negative Control
CCCCNC(=O)COc1c(C)cc(Br)cc1C [compound 1570496] | 47.1 | 84.5 % of Negative Control
Cc1ccccc1OCCSCc1nc2ccccc2[nH]1 [compound 1589778] | 72.5 | 86.0 % of Negative Control
Clc1ccc(OCCSCc2nc3ccccc3[nH]2)cc1 [compound 1589789] | 79.6 | 74.0 % of Negative Control
O=C1/C(=C/c2ccncc2)SC(=S)N1Nc1ccccc1 [compound 1636480] | 67.7 | 86.8 % of Negative Control
CCCOc1ccc(CSc2nc3ccccc3[nH]2)cc1 [compound 1653621] | 77.4 | 75.1 % of Negative Control
CC(=O)c1ccc(OCCOc2ccc(C#N)cc2)cc1 [compound 1713451] | 41.1 | 106.4 % of Negative Control
CC(C)(c1ccc(O)cc1)c1ccc(Cl)cc1 [compound 1992009] | 96.6 | 2.1 % of Negative Control
COc1ccc(CCNc2ncnc3scc(-c4cccs4)c23)cc1OC [compound 2008712] | 68.9 | 97.9 % of Negative Control
O=C(NCc1ccco1)c1sc2ccccc2c1Cl [compound 2049334] | 53.3 | 88.3 % of Negative Control
Cc1cc(C)c2sc(NN)nc2c1 [compound 2049855] | 100.6 | 38.9 % of Negative Control
CCCCSc1nc2ccc(C)cc2[nH]1 [compound 2129690] | 80.1 | 104.3 % of Negative Control
Cc1ccc(S(=O)(=O)Nc2cc(Sc3nc[nH]n3)c(O)c3ccccc23)c(C)c1 [compound 2133779] | 98.3 | 3.5 % of Negative Control
Cc1nc(NC(=O)CCl)sc1C(=O)OCC(C)C [compound 2139195] | 99.1 | 6.3 % of Negative Control
COc1ccc(NC(=O)CN2CCN(c3c(C)cccc3C)CC2)cc1 [compound 2200363] | 64.6 | 71.8 % of Negative Control
c1nc(N2CCCCCC2)c2ccsc2n1 [compound 2238990] | 57.0 | 79.6 % of Negative Control
CC1CCN(c2ncnc3sccc23)CC1 [compound 2238992] | 73.6 | 70.0 % of Negative Control
Cc1nc(NCc2ccccc2)c2ccsc2n1 [compound 2238994] | 84.9 | 75.7 % of Negative Control
Cc1nc(NC2CCCCC2)c2ccsc2n1 [compound 2239015] | 45.4 | 75.4 % of Negative Control
O=c1/c(=C/c2ccc(F)cc2F)sc2nc3ccccc3n12 [compound 2354424] | 88.9 | 81.4 % of Negative Control
FC(F)(F)c1cccc(N2CCN(c3ncnc4sccc34)CC2)c1 [compound 2497352] | 92.5 | 96.2 % of Negative Control
CC(C)(C)NCC(O)COc1ccc(C23CC4CC(CC(C4)C2)C3)cc1 (centres unmarked) [compound 2769740] | 101.5 | 2.7 % of Negative Control
NNc1nc2cc3c(cc2s1)OCCO3 [compound 2771030] | 99.1 | 94.3 % of Negative Control

SMILES | Yeast Inhibition: % Inhibition [1] [%] | Cytotoxicity: Relative Cell Viability (% of Negative Control) [2]
O=Cc1sc(=O)n(-c2ccccc2)c1Cl [compound 2793380] | 78.0 | 5.7 % of Negative Control
O=S1(=O)CCC(NC(=S)SCc2ccccc2)C1 (centres unmarked) [compound 2831154] | 48.2 | 24.3 % of Negative Control
Cc1ccc(N2C(=O)C=CC2=O)c([N+](=O)[O-])c1 [compound 2834581] | 101.2 | 4.3 % of Negative Control
C=CCN(CC=C)CC(O)CN1c2ccccc2Sc2ccccc21 (centres unmarked) [compound 2896856] | 43.9 | 5.4 % of Negative Control
Cc1ccc(N2C(=O)CC(Sc3ccccc3C(=O)O)C2=O)c(Br)c1 (centres unmarked) [compound 2919713] | 67.2 | 94.3 % of Negative Control
ClC1(Cl)CC1Cn1cnc2ccccc21 (centres unmarked) [compound 2936975] | 49.3 | 93.7 % of Negative Control
O=C1c2ccccc2S(=O)(=O)N1CC(O)COc1ccc(Cl)cc1Cl (centres unmarked) [compound 2943193] | 57.4 | 90.5 % of Negative Control
Cc1ccc(N2C(=O)CC(Sc3ccccc3C(=O)N3CCOCC3)C2=O)cc1 (centres unmarked) [compound 2951953] | 52.3 | 94.9 % of Negative Control
CCOC(=O)c1ccc(NC(=O)CC2Sc3ncnn3C2=O)cc1 (centres unmarked) [compound 2954695] | 101.7 | 99.4 % of Negative Control
NS(=O)(=O)c1ccc(NC(=O)CSC2CC(=O)N(c3ccc(Br)cc3)C2=O)cc1 (centres unmarked) [compound 2974037] | 90.7 | 102.2 % of Negative Control
CN(C)S(=O)(=O)N1CCN(CC(O)COc2ccc3cc(Br)ccc3c2)CC1 (centres unmarked) [compound 2981975] | 70.4 | 88.7 % of Negative Control
CCn1c(CSc2ccccc2)nc2ccccc21 [compound 2992099] | 59.0 | 99.2 % of Negative Control
ClC(Cl)(c1nnnn1-c1ccccc1)c1nnnn1-c1ccccc1 [compound 3090522] | 87.7 | 90.6 % of Negative Control
CC1Cc2ccccc2N1C(=O)CCn1c(=O)sc2ccccc21 (centres unmarked) [compound 3163780] | -1.3 | 59.5 % of Negative Control
S=C1SCN(Cc2ccccn2)CN1Cc1ccco1 [compound 3242906] | 100.6 | 103.5 % of Negative Control
O=C1CC(c2ccccc2)[Se]C(c2ccccc2)C1 (centres unmarked) [compound 3287596] | 100.2 | 45.9 % of Negative Control
COC(=O)C1=C(N)OC2=C(C(=O)CCC2)C1c1ccc(OC)c(OC)c1 (centres unmarked) [compound 3355288] | 9.4 | 104.5 % of Negative Control
S=C(NCc1ccco1)SCc1cn2ccccc2n1 [compound 3377203] | 66.6 | 86.3 % of Negative Control
CCCOC1(NS(=O)(=O)c2ccccc2)C(Cl)=C(Cl)C(=O)c2ccccc21 (centres unmarked) [compound 3397555] | 101.3 | 17.7 % of Negative Control
Cc1ccc2nc(Nc3ccncc3)nc(-c3ccccc3)c2c1 [compound 3516311] | 20.1 | 72.7 % of Negative Control
Nc1cc(Cl)c([N+](=O)[O-])cc1OCc1ccccc1 [compound 3521356] | 52.3 | 102.1 % of Negative Control
O=C(Nc1ccc2sccc2c1)c1ccc([N+](=O)[O-])s1 [compound 3629287] | 97.9 | 19.4 % of Negative Control
CC(C)(C)c1c[se]c(=S)s1 [compound 3797566] | 91.9 | 98.5 % of Negative Control
CCOC(=O)N1CCN(C(c2ccccn2)c2c(-c3ccccc3)n(O)c3ccccc23)CC1 (centres unmarked) [compound 4081132] | 101.5 | 84.9 % of Negative Control
